Source: patent US20120029187A1, “HALOALKYLSULFONANILIDE DERIVATIVE” (Nissan Chemical Industries, Ltd., priority 2009, published 2012)

What was measured:
Format in all cases: in vivo
bulrush [1] = assay: Test Example 1: herbicidal effects in preemergence treatment under submerged conditions; conditions: dose 2.52 g/a
Method in brief: (§1)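 Score 0–5 by mortality (5: ≥90%; 0: <5%), read 3 weeks post-application. Paddy-type cups: alluvial soil under 4 cm water, weeds seeded plus transplanted 2.5-leaf rice; diluted EC dosed onto water surface same day as sowing, g/a basis; greenhouse 25 to 30° C.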

ducksalad [2] = assay: as above; conditions: dose 2.52 g/a
Method in brief: as §1

barnyardgrass [3] = assay: as above; conditions: dose 2.52 g/a
Method in brief: as §1

beadstraw = assay: Test Example 4: herbicidal effect in foliage treatment; conditions: dose 6.3 g/a, three weeks after application
Method in brief: (§2)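 14-day greenhouse-grown plants (25–30° C) sprayed on foliage with diluted EC; dose as g/a; effect graded after 3 weeks.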

water foxtail [4] = assay: as above; conditions: dose 6.3 g/a, three weeks after application
Method in brief: as §2

common lambsquater [5] = assay: as above; conditions: dose 6.3 g/a, three weeks after application
Method in brief: as §2

Italian ryegrass [6] = assay: as above; conditions: dose 6.3 g/a, three weeks after application
Method in brief: as §2

large crabgrass [7] = assay: as above; conditions: dose 6.3 g/a, three weeks after application
Method in brief: as §2

redroot pigweed [8] = assay: as above; conditions: dose 6.3 g/a, three weeks after application
Method in brief: as §2

common ragweed [9] = assay: as above; conditions: dose 6.3 g/a, three weeks after application
Method in brief: as §2

wild oat [10] = assay: as above; conditions: dose 6.3 g/a, three weeks after application
Method in brief: as §2

common chickweed [11] = assay: as above; conditions: dose 6.3 g/a, three weeks after application
Method in brief: as §2

giant foxtail [12] = assay: as above; conditions: dose 6.3 g/a, three weeks after application
Method in brief: as §2

barnyardgrass [13] = assay: as above; conditions: dose 6.3 g/a, three weeks after application
Method in brief: as §2

water foxtail [14] = assay: Test Example 3: herbicidal effects in soil treatment; conditions: dose 6.3 g/a
Method in brief: (§3)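 Seeds were sown in sterilized diluvial soil and covered with about 1.5 cm of soil. Compounds, formulated as emulsifiable concentrates and diluted with water, were sprayed evenly over the soil surface at set doses in g/a. Herbicidal effect was scored on a rating scale three weeks later.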

common lambsquater [15] = assay: as above; conditions: dose 6.3 g/a
Method in brief: as §3

Italian ryegrass [16] = assay: as above; conditions: dose 6.3 g/a
Method in brief: as §3

large crabgrass [17] = assay: as above; conditions: dose 6.3 g/a
Method in brief: as §3

redroot pigweed [18] = assay: as above; conditions: dose 6.3 g/a
Method in brief: as §3

common ragweed [19] = assay: as above; conditions: dose 6.3 g/a
Method in brief: as §3

wild oat [20] = assay: as above; conditions: dose 6.3 g/a
Method in brief: as §3

common chickweed [21] = assay: as above; conditions: dose 6.3 g/a
Method in brief: as §3

giant foxtail [22] = assay: as above; conditions: dose 6.3 g/a
Method in brief: as §3

barnyardgrass [23] = assay: as above; conditions: dose 6.3 g/a
Method in brief: as §3

bulrush [24] = assay: Test Example 2: herbicidal effects during the vegetation period under submerged conditions; conditions: treatment during the vegetation period under submerged conditions; dose 2.52 g/a
Method in brief: (§4)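 Barnyardgrass, bulrush and ducksalad were co-sown in alluvial soil flooded to 4 cm and grown in a greenhouse at 25 to 30° C. At the 1- or 2-leaf stage, water-diluted emulsifiable concentrates went onto the water surface at set doses (g/a). Herbicidal effect was scored three weeks later on a graded scale.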

ducksalad [25] = assay: as above; conditions: treatment during the vegetation period under submerged conditions; dose 2.52 g/a
Method in brief: as §4

barnyardgrass [26] = assay: as above; conditions: treatment during the vegetation period under submerged conditions; dose 2.52 g/a
Method in brief: as §4

Row | SMILES | B: bulrush, herbicidal effect (evaluation scale 0-5) (bulrush [1]) | C: ducksalad, herbicidal effect (evaluation scale 0-5) (ducksalad [2]) | A: barnyardgrass, herbicidal effect (evaluation scale 0-5) (barnyardgrass [3]) | O: beadstraw, herbicidal effect (beadstraw) | G: water foxtail, herbicidal effect (water foxtail [4]) | L: common lambsquater, herbicidal effect (common lambsquater [5]) | H: Italian ryegrass, herbicidal effect (Italian ryegrass [6]) | D: large crabgrass, herbicidal effect (large crabgrass [7]) | K: redroot pigweed, herbicidal effect (redroot pigweed [8]) | J: common ragweed, herbicidal effect (common ragweed [9]) | F: wild oat, herbicidal effect (wild oat [10]) | N: common chickweed, herbicidal effect (common chickweed [11]) | E: giant foxtail, herbicidal effect (giant foxtail [12]) | A: barnyardgrass, herbicidal effect (barnyardgrass [13]) | G: water foxtail, herbicidal effect (evaluation scale 0-5) (water foxtail [14]) | L: common lambsquater, herbicidal effect (evaluation scale 0-5) (common lambsquater [15]) | H: Italian ryegrass, herbicidal effect (evaluation scale 0-5) (Italian ryegrass [16]) | D: large crabgrass, herbicidal effect (evaluation scale 0-5) (large crabgrass [17]) | K: redroot pigweed, herbicidal effect (evaluation scale 0-5) (redroot pigweed [18]) | J: common ragweed, herbicidal effect (evaluation scale 0-5) (common ragweed [19]) | further results
1 | CCC(=O)N(c1ccccc1CN1COC(C)CC1=O)S(=O)(=O)C(F)(F)F (stereo not drawn) [II-5] | 5 (mortality of 90% or above (nearly complete death)) | 5 (mortality of 90% or above (nearly complete death)) | 5 (mortality of 90% or above (nearly complete death)) | 0 (mortality of less than 5% (almost ineffective)) | 5 (mortality of 90% or above (nearly complete death)) | 3 (mortality of at least 40% and less than 70%) | 3 (mortality of at least 40% and less than 70%) | 5 (mortality of 90% or above (nearly complete death)) | 0 (mortality of less than 5% (almost ineffective)) | 5 (mortality of 90% or above (nearly complete death)) | 0 (mortality of less than 5% (almost ineffective)) | 3 (mortality of at least 40% and less than 70%) | 5 (mortality of 90% or above (nearly complete death)) | 5 (mortality of 90% or above (nearly complete death)) | 5 (mortality of 90% or above (nearly complete death)) | 4 (mortality of at least 70% and less than 90%) | 4 (mortality of at least 70% and less than 90%) | 5 (mortality of 90% or above (nearly complete death)) | 1 (mortality of at least 5% and less than 20%) | 4 (mortality of at least 70% and less than 90%) | F: wild oat, herbicidal effect (evaluation scale 0-5) (wild oat [20]): 0 (mortality of less than 5% (almost ineffective)); N: common chickweed, herbicidal effect (evaluation scale 0-5) (common chickweed [21]): 5 (mortality of 90% or above (nearly complete death)); E: giant foxtail, herbicidal effect (evaluation scale 0-5) (giant foxtail [22]): 3 (mortality of at least 40% and less than 70%); A: barnyardgrass, herbicidal effect (evaluation scale 0-5) (barnyardgrass [23]): 5 (mortality of 90% or above (nearly complete death)); B: bulrush, herbicidal effect (evaluation scale 0-5) (bulrush [24]): 5 (mortality of 90% or above (nearly complete death)); C: ducksalad, herbicidal effect (evaluation scale 0-5) (ducksalad [25]): 5 (mortality of 90% or above (nearly complete death)); A: barnyardgrass, herbicidal effect (evaluation scale 0-5) (barnyardgrass [26]): 5 (mortality of 90% or above (nearly complete death))
2 | CC1(C)CC(=O)N(Cc2ccccc2NS(=O)(=O)C(F)(F)F)CO1 [II-17, 6,6-dimethyl-3-(2-trifluoromethanesulfonylaminobenzyl)-1,3-oxazinan-4-one] | 5 (mortality of 90% or above (nearly complete death)) | 5 (mortality of 90% or above (nearly complete death)) | 5 (mortality of 90% or above (nearly complete death)) | 5 (mortality of 90% or above (nearly complete death)) | 5 (mortality of 90% or above (nearly complete death)) | 4 (mortality of at least 70% and less than 90%) | 4 (mortality of at least 70% and less than 90%) | 5 (mortality of 90% or above (nearly complete death)) | 1 (mortality of at least 5% and less than 20%) | 5 (mortality of 90% or above (nearly complete death)) | 0 (mortality of less than 5% (almost ineffective)) | 4 (mortality of at least 70% and less than 90%) | 5 (mortality of 90% or above (nearly complete death)) | 5 (mortality of 90% or above (nearly complete death)) | 5 (mortality of 90% or above (nearly complete death)) | 2 (mortality of at least 20% and less than 40%) | 4 (mortality of at least 70% and less than 90%) | 5 (mortality of 90% or above (nearly complete death)) | 1 (mortality of at least 5% and less than 20%) | 5 (mortality of 90% or above (nearly complete death)) | F: wild oat, herbicidal effect (evaluation scale 0-5) (wild oat [20]): 0 (mortality of less than 5% (almost ineffective)); N: common chickweed, herbicidal effect (evaluation scale 0-5) (common chickweed [21]): 4 (mortality of at least 70% and less than 90%); E: giant foxtail, herbicidal effect (evaluation scale 0-5) (giant foxtail [22]): 5 (mortality of 90% or above (nearly complete death)); A: barnyardgrass, herbicidal effect (evaluation scale 0-5) (barnyardgrass [23]): 5 (mortality of 90% or above (nearly complete death)); B: bulrush, herbicidal effect (evaluation scale 0-5) (bulrush [24]): 5 (mortality of 90% or above (nearly complete death)); C: ducksalad, herbicidal effect (evaluation scale 0-5) (ducksalad [25]): 5 (mortality of 90% or above (nearly complete death)); A: barnyardgrass, herbicidal effect (evaluation scale 0-5) (barnyardgrass [26]): 5 (mortality of 90% or above (nearly complete death))
3 | CC1(C)CC(=O)N(Cc2ccccc2N(C(=O)C2CC2)S(=O)(=O)C(F)(F)F)CO1 [II-20] | 5 (mortality of 90% or above (nearly complete death)) | 5 (mortality of 90% or above (nearly complete death)) | 5 (mortality of 90% or above (nearly complete death)) | 4 (mortality of at least 70% and less than 90%) | 5 (mortality of 90% or above (nearly complete death)) | 0 (mortality of less than 5% (almost ineffective)) | 4 (mortality of at least 70% and less than 90%) | 5 (mortality of 90% or above (nearly complete death)) | 0 (mortality of less than 5% (almost ineffective)) | 5 (mortality of 90% or above (nearly complete death)) | 0 (mortality of less than 5% (almost ineffective)) | 3 (mortality of at least 40% and less than 70%) | 5 (mortality of 90% or above (nearly complete death)) | 5 (mortality of 90% or above (nearly complete death)) | 5 (mortality of 90% or above (nearly complete death)) | 0 (mortality of less than 5% (almost ineffective)) | 5 (mortality of 90% or above (nearly complete death)) | 4 (mortality of at least 70% and less than 90%) | 0 (mortality of less than 5% (almost ineffective)) | 4 (mortality of at least 70% and less than 90%) | F: wild oat, herbicidal effect (evaluation scale 0-5) (wild oat [20]): 0 (mortality of less than 5% (almost ineffective)); N: common chickweed, herbicidal effect (evaluation scale 0-5) (common chickweed [21]): 4 (mortality of at least 70% and less than 90%); E: giant foxtail, herbicidal effect (evaluation scale 0-5) (giant foxtail [22]): 4 (mortality of at least 70% and less than 90%); A: barnyardgrass, herbicidal effect (evaluation scale 0-5) (barnyardgrass [23]): 5 (mortality of 90% or above (nearly complete death)); B: bulrush, herbicidal effect (evaluation scale 0-5) (bulrush [24]): 5 (mortality of 90% or above (nearly complete death)); C: ducksalad, herbicidal effect (evaluation scale 0-5) (ducksalad [25]): 5 (mortality of 90% or above (nearly complete death)); A: barnyardgrass, herbicidal effect (evaluation scale 0-5) (barnyardgrass [26]): 5 (mortality of 90% or above (nearly complete death))
